Marks after values point to notes of the source that are not given here.

Assay type in all cases: cell-based
Data set [1] has as its system SH-SY5Y cells. In words: Anti-apoptotic activity against β-amyloid toxicity in SH-SY5Y cells, microscopic grading. Conditions: Beta-amyloid 10 μg/ml added on day 5. The protocol:
To determine whether this was reproducible and to determine the potency of CLN to inhibit retinoic acid toxicity, two concentration of retinoic acid were used to treat cells on day one of the experiment, 20 μM and 40 μM. *Control wells were mock-treated for the duration of the experiment. Retinoic Acid was left on the plate for the duration of the experiment or until washed off. Colostrinin was added to the plate at the indicated doses. When added on Day 1, it was present during the entire experiment. When added on Day 5, it was incubated on the plate for 30 minutes at 37° C. and then removed. The wells were washed twice with PBS before adding β-Amyloid. Cultures were then observed under the microscope and graded.

Data set [2] has as its system SH-SY5Y cells. In words: Protection against retinoic acid toxicity in SH-SY5Y cells, microscopic grading. Conditions: for DIFFERENTIATION: Retinoic Acid 20 μM (Day 1) alone. As to the method:
Retinoic Acid was left on the plate for the duration of the experiment or until washed off. Colostrinin was added to the plate at the indicated doses. When added on Day 1, it was present during the entire experiment. When added on Day 5, it was incubated on the plate for 30 minutes at 37° C. and then removed. The wells were washed twice with PBS before adding β-Amyloid. Cultures were then observed under the microscope and graded.

Data set [3] concerns 4HNE-protein adducts in PC12 cells. Briefly: 4HNE-protein adduct formation, fluorescent microscopy (immunocytochemistry). Conditions: 4HNE 25 nM or H2O2 100 μM alone. From the text:
Cell cultures: Pheochromocytoma (PC12) cells were provided by Dr. Regino Perez-Polo (University of Texas Medical Branch, Department of Human Biological Chemistry and Genetics) and maintained in EMEM supplemented with 10% fetal bovine serum, penicillin (100 IU/mI) and streptomycin (100 micrograms per milliliter (μg/ml)). Exponentially growing populations of PC12 cells were sub-cultured and used for all experiments.
Immunocytochemistry: PC12 cells grown on cover-slips were fixed overnight in PBS containing 2% paraformaldehyde at 4° C. Cells were permeabilized by 0.3% Triton X-100, washed in PBS then incubated with primary antibody in PBS containing 0.05% Tween 20 (PBS-T). After washing 3 times in PBS-T, FITC-labeled anti-rabbit IgG (Santa Cruz Biotechnology Inc.) was added. Cells were washed (5 times, for 10 min) with PBS-T and mounted on microscope slides in anti-fade solution (Dako, Inc.). Images of cellular immunofluorescence were acquired using a NIKON Eclipse TE300 scanning microscope.
Fluorescent microscopy and Western blot analysis was undertaken to investigate the extent of 4HNE protein-adduct formation in cultures of PC12 cells in the presence of CLN. Cells were pretreated with CLN or LAH in the presence or absence of 4HNE and then analyzed for the formation of 4HNE-protein adducts.

Data set [4] has as its system JNK. Briefly: 4HNE-induced JNK activation, Western blot with anti-phospho-(Thr-183/Tyr-185) JNK antibody. Conditions: PC12 cells. As to the method: Western blot analysis: PC12 cells were plated at 7×10^6 cells/T75 flask. After exposure to 4HNE, colostrinin or their combination, cells were collected and lysed in 50 millimolar (mM) Tris, 5 mM EDTA, 150 mM NaCl, 0.5% NP-40, 10% glycerol and protease inhibitor cocktail (supplemented with 1 mM Na3VO4, 2 mM EDTA, 1 mM phenylmethylsulfonyl fluoride). Lysates were centrifuged at 14,000g for 10 minutes (min) (4° C.) and 40 μg of protein was fractionated on a 10% SDS-polyaciylamide gel and transferred to protein-optimized membranes (Amersham, Inc.). p53 was detected using specific antibody (DO1; Santa Cruz Biotechnology, Inc.) at a dilution of 1:300. Adducts were detected using an antibody to HNE-protein adducts (Phanningen, Inc.) at a dilution of 1:500. The anti-phospho-JNK antibody (New England Biolabs, Inc., Beverly, Mass.) was raised against a synthetic phosphopeptide (SFMMT*PY*VVTRYYR) corresponding to residues 179–193 of JNK. […]
The effect of CLN on 4HNE-induced activation of JNK in PC12 cells was investigated. The activation of JNK was monitored by Western blot analysis using a highly specific anti-phospho- (Thr-183/Tyr-185) JNK antibody (Materials and Methods).
(A western blot detects proteins with antibodies after separation by electrophoresis.)

Data set [5] deals with GSH extrusion from PC12 cells. In words: Reduced GSH in extracellular fluid (GSH extrusion). Conditions: 4HNE, relative to CLN- or mock-treated cells. The protocol:
To determine whether the loss of intracellular GSH was due to it's extrusion from the cells or oxidation, the level of reduced GSH in the extra-cellular fluid was evaluated.

Data set [6] relates to p53. In words: 4HNE-induced activation of p53, Western blot. Conditions: 4HNE-treated PC12 cells. As to the method: (§1) Western blot analysis: PC12 cells were plated at 7×10^6 cells/T75 flask. After exposure to 4HNE, colostrinin or their combination, cells were collected and lysed in 50 millimolar (mM) Tris, 5 mM EDTA, 150 mM NaCl, 0.5% NP-40, 10% glycerol and protease inhibitor cocktail (supplemented with 1 mM Na3VO4, 2 mM EDTA, 1 mM phenylmethylsulfonyl fluoride). Lysates were centrifuged at 14,000g for 10 minutes (min) (4° C.) and 40 μg of protein was fractionated on a 10% SDS-polyaciylamide gel and transferred to protein-optimized membranes (Amersham, Inc.). p53 was detected using specific antibody (DO1; Santa Cruz Biotechnology, Inc.) at a dilution of 1:300. Adducts were detected using an antibody to HNE-protein adducts (Phanningen, Inc.) at a dilution of 1:500. The anti-phospho-JNK antibody (New England Biolabs, Inc., Beverly, Mass.) was raised against a synthetic phosphopeptide (SFMMT*PY*VVTRYYR) corresponding to residues 179–193 of JNK. For visualization of primary antibody binding, all blots were incubated with horseradish peroxidase-conjugated secondary antibody (Amersham, Inc.) at a dilution of 1:2000, followed by chemiluminescence detection (Amersham, Inc.) and autoradiography.
Whether CLN could modulate p53 levels after 4HNE exposure was also investigated.

The test system of data set [7] is intracellular GSH in PC12 cells. In words: Intracellular glutathione (GSH) level, o-phthalaldehyde fluorimetry. As to the method: Measurement of glutathione (GSH): In brief, PC12 cells were mock- or pre-treated with CLN or lactalbumin hydrolysate (LAH), both in 10 μg/ml concentration and then exposed to 4HNE (25 nM). PBS-washed (twice) cells were then extracted with 25% (w/v) metaphosphoric acid solution containing 5 mM EDTA. After ultracentrifugation (105,000 g for 30 min), 100 μl of 100 mM phosphate solution (pH 8.0) containing 5 mM EDTA and 10 μl of o-phthalaldehyde OPA(OPD; Molecular Probes, Inc.) was added to the supernatant, and the fluorescence intensity at 420 nm determined with excitation set at 350 nm (A. P. Senft et al., Anal Biochem., 280:80–86 (2000)).
To investigate whether the anti-oxidant effect of CLN was due to protection of intracellular GSH levels, PC12 cells were pre-treated (with CLN or LAH) and exposed to 4HNE, as described above, and changes in GSH levels were determined fluorimetrically. […] OPA (o-phthalaldehyde or phthalic dicarboxaldehyde) is highly fluorescent when it is conjugated to GSH (A.P. Senft et al., Anal Biochem., 280:80–86 (2000)).

Data set [8] has as its system PC12 cells. Briefly: 4HNE-induced apoptosis, annexin V-PE / 7-AAD flow cytometry. As to the method:
FIG. 8. […] PC12 cells were treated with CLN (1 μg per ml) for 15 min and 4HNE (100 nM) was added. Twenty four hours later, cells were harvested and stained with annexin V-PE and 7-AAD. 1, solvent alone; 2, 100 nM 4HNE; 3, TROLOX (vitamin E) 4, col (internal control)+100 nM 4HNE; 5, CLN alone (1 μg per ml); 6, CLN (1 μg per ml)+100 nM 4HNE.
Apoptosis is a specific mode of cell death recognized by a characteristic pattern of morphological, biochemical, and molecular changes. Currently the hallmark of apoptosis in vitro is DNA fragmentation and changes in plasma membrane reorganization that allows for the surface expression of phosphatidyl-D-serine and result in increased membrane permeability. The protection of cells against 4HNE by CLN using increased permeability and cell membrane expression of phosphatidyl-D-serine was investigated.
Cells were simultaneously labeled with fluorochrome-conjugated annexin V-PE (detecting PS asymmetry in the plasma membrane, an early marker of apoptosis), 7-aminoactinomycin D (7-AAD) (detecting increased membrane permeability associated with both apoptosis and necrosis). A dual laser flow cytometer (either a Becton-Dickinson FACScan) was used for the simultaneous detection of the PE-conjugated annexin V (which is excited at […]), 7-AAD (excited at 488 nm and emitting at 670 nm). […]
(A flow cytometer gives signals particle by particle.)

In data set [9] the test system is 4HNE-protein adducts in PC12 cells. Briefly: 4HNE-protein adduct levels, Western blot analysis. Conditions: 4HNE 25, 12.5, 6.2 nM alone. The protocol: as §1
To confirm the results generated by immunochemistry, Western blot analysis was used to investigate changes in 4HNE-protein adduct levels in cells treated with 4HNE alone or CLN plus 4HNE.

Take β-Amyloid: the “cell morphology, Beta-amyloid alone (FIG. 6B)” value in data set [1] is reported as “show its toxicity”.
Turning to `CC1=C(/C=C/C(C)=C/C=C/C(C)=C/C(=O)O)C(C)(C)CCC1` [Retinoic Acid], the DIFFERENTIATION result is on record as “++++ (Day 2)^b (++++ Approximately 100% of the cells)” in data set [2] (cells observed Day 2) and “+ (Day 8)^b (+ Approximately 25% of the cells)” in data set [2] (cells observed Day 8). Besides, in data set [2] (retinoic acid 20 μM), the “onset of toxicity, retinoic acid alone” value is recorded as “started showing signs of toxicity by day 6”. Further, the “cell morphology, retinoic acid alone (FIG. 6F)” value in data set [2] (retinoic acid 20 μM added on day 1) is on record as “Toxic (apoptotic) effect”. For the same molecule, in [2] (retinoic acid 40 μM), the “toxicity, retinoic acid alone” value is listed as “the toxicity developed too rapidly”.
In the case of `OO` [H2O2], the “4HNE-protein adduct fluorescence, inducer alone” value in data set [3] is on record as “bright fluorescence”.
Consider `Nc1ncnc2c1nc(Sc1ccc(Cl)cc1)n2[C@@H]1O[C@@H]2COP(=O)(O)O[C@H]2[C@H]1O` [8-(4-chlorophenylthio)-cAMP], for which the “4HNE-induced JNK phosphorylation” value in [4] (pretreatment with inhibitor of JNK activation) is “prevented 4HNE-induced JNK phosphorylation”.
In the case of `CCCCCC(O)/C=C/C=O` (centres unmarked) [4HNE], in data set [5], the “OPA-GSH-mediated fluorescence of extracellular fluid” value is recorded as “significant increase in OPA-GSH-mediated fluorescence”. For the same molecule, the “JNK phosphorylation, 4HNE alone” value in [4] (4HNE 25 nM alone) was “potent inducer of JNK phosphorylation”. In addition, the “4HNE-protein adduct fluorescence, inducer alone” value in data set [3] is recorded as “bright fluorescence”. The “p53 activation, 4HNE alone” value in data set [6] was “induced its activation”. Besides, in data set [7] (4HNE 25 nM), the “loss of GSH” value is recorded as “more than 50%”. Also, the “intracellular GSH levels, 4HNE alone” value in [7] (4HNE alone for 30 min) is “significant reduction of intracellular GSH levels”. The “toxic effects / induction of apoptosis” value in [8] (4HNE 25 nM, PC12 cells) is “did not show toxic effects or induce apoptosis”. Further, the “apoptosis, 4HNE alone” value in [8] (4HNE 100 nM) is listed as “Induction of apoptosis”. Further, the “4HNE-protein adduct levels (Western blot), 4HNE alone” value in data set [9] is on record as “significant increase in levels of 4HNE-protein adducts”.

For the origin of these results see patent publication US7119064B2, “Use of colostrinin, constituent peptides thereof, and analogs thereof as modulators of intracellular signaling molecules” (Board of Regents, The University of Texas System, priority 1999, dated 2006).
